Experimental data published in patent publication US11834430B2, “Compounds useful as inhibitors of isoprenylcysteine carboxyl methyltransferase” (AGENCY FOR SCIENCE, TECHNOLOGY AND RESEARCH, priority 2017, dated 2023).
Values joined by “and” are separate entries in the source; they are usually repeats but may differ in a detail not shown here. Identical values can stand only once.

Molecular target: human ICMT (Homo sapiens (Human), UniProt O60725)
Assay: ICMT biochemical assay (Methyltransferase-Glo)
[1] = ICMT membrane extract from Sf-9 cells, 30 min preincubation, 90 min reaction

Sequence of human ICMT (O60725 whole entry): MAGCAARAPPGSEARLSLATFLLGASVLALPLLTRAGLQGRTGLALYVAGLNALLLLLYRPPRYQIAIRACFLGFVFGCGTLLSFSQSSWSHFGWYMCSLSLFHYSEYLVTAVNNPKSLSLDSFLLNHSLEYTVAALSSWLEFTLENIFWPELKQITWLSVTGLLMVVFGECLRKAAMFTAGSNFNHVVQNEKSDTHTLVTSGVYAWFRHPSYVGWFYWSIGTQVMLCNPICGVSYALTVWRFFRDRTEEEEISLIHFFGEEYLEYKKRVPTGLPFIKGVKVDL

Row | Structure (SMILES) | IC50 [1] | IC50 (unit (nM))
1 | N#Cc1ccc(OCCOc2cccc(-c3cnoc3)c2)cc1 [Compound 67, 4-(2-(3-(isoxazol-4-yl)phenoxy)ethoxy)benzonitrile] | 140 nM and 100 nM | –
2 | Cc1cc(C#N)ccc1O[C@H](C)COc1cccc(-n2ccnc2C2CC2)c1 [Compound 68, (R)-4-((1-(3-(2-cyclopropyl-1H-imidazol-1-yl)phenoxy)propan-2-yl)oxy)-3-methylbenzonitrile] | 1.5 nM and 13 nM | –
3 | COc1cc(C#N)ccc1O[C@@H](C)COc1cccc(-n2ccnc2C)c1 [Compound 72, (S)-3-methoxy-4-((1-(3-(2-methyl-1H-imidazol-1-yl)phenoxy)propan-2-yl)oxy)benzonitrile] | 4.5 nM | –
4 | Cc1nccn1-c1cccc(OCCOc2ccc(C#N)nn2)c1 [Compound 73, 6-(2-(3-(2-methyl-1H-imidazol-1-yl)phenoxy)ethoxy)pyridazine-3-carbonitrile] | 950 nM | –
5 | Cc1nccn1-c1cccc(OCCOc2ncc(C#N)cc2F)c1 [Compound 74, 5-fluoro-6-(2-(3-(2-methyl-1H-imidazol-1-yl)phenoxy)ethoxy)nicotinonitrile] | 65 nM | –
6 | Cn1nccc1-c1cccc(OCCOc2ccc(C#N)cn2)c1 [Compound 75, 6-(2-(3-(1-methyl-1H-pyrazol-5-yl)phenoxy)ethoxy)nicotinonitrile] | 60 nM and 62 nM | –
7 | N#Cc1ccc(OCCOc2ccnc(-n3ccnc3C3CC3)c2)c(F)c1 [Compound 76, 4-(2-((2-(2-cyclopropyl-1H-imidazol-1-yl)pyridin-4-yl)oxy)ethoxy)-3-fluorobenzonitrile] | – | 0.39 nM
8 | COc1cc(C#N)ccc1O[C@H](C)COc1cccc(-n2ccnc2C)c1 [Compound 77, (R)-3-methoxy-4-((1-(3-(2-methyl-1H-imidazol-1-yl)phenoxy)propan-2-yl)oxy)benzonitrile] | – | 0.7 nM
9 | Cc1nccn1-c1cccc(OC[C@H](C)Oc2ccc(C#N)cc2F)c1 [Compound 79, (S)-3-fluoro-4-((1-(3-(2-methyl-1H-imidazol-1-yl)phenoxy)propan-2-yl)oxy)benzonitrile] | 31 nM | –
10 | Cn1nccc1-c1cccc(OCCOc2ncc(C#N)cc2F)c1 [Compound 82, 5-fluoro-6-(2-(3-(1-methyl-1H-pyrazol-5-yl)phenoxy)ethoxy)nicotinonitrile] | 210 nM and 190 nM | –
11 | N#Cc1cnc(OCCOc2cccc(-n3ccnc3C3CC3)c2)c(F)c1 [Compound 83, 6-(2-(3-(2-cyclopropyl-1H-imidazol-1-yl)phenoxy)ethoxy)-5-fluoronicotinonitrile] | 3.7 nM | –
12 | N#Cc1ccc(OCCOc2cccc(-c3cnoc3)c2)c(F)c1 [Compound 84, 3-fluoro-4-(2-(3-(isoxazol-4-yl)phenoxy)ethoxy)benzonitrile] | 28 nM | –
13 | Cc1nccn1-c1cc(OCCOc2ccc(C#N)cc2)ccn1 [Compound 85, 4-(2-((2-(2-methyl-1H-imidazol-1-yl)pyridin-4-yl)oxy)ethoxy)benzonitrile] | 15 nM | –
14 | Cc1nccn1-c1cccc(OCCOc2ccc(C#N)cc2F)n1 [Compound 86, 3-fluoro-4-(2-((6-(2-methyl-1H-imidazol-1-yl)pyridin-2-yl)oxy)ethoxy)benzonitrile] | 17 nM | –
15 | Cc1nccn1-c1cc(OCCOc2ncc(C#N)cc2F)ccc1F [Compound 87, 5-fluoro-6-(2-(4-fluoro-3-(2-methyl-1H-imidazol-1-yl)phenoxy)ethoxy)nicotinonitrile] | 33 nM | –
16 | N#Cc1ccc(OCCOc2ccnc(-n3ccnc3C3CC3)c2)cc1 [Compound 89, 4-(2-((2-(2-cyclopropyl-1H-imidazol-1-yl)pyridin-4-yl)oxy)ethoxy)benzonitrile] | 2.8 nM | –
17 | N#Cc1cnc(OCCOc2ccnc(-n3ccnc3C3CC3)c2)c(F)c1 [Compound 90, 6-(2-((2-(2-cyclopropyl-1H-imidazol-1-yl)pyridin-4-yl)oxy)ethoxy)-5-fluoronicotinonitrile] | 37 nM | –
18 | Cc1nccn1-c1cc(OCCOc2ncc(C#N)cc2F)ccn1 [Compound 91, 5-fluoro-6-(2-((2-(2-methyl-1H-imidazol-1-yl)pyridin-4-yl)oxy)ethoxy)nicotinonitrile] | 120 nM | –
19 | Cn1nccc1-c1cncc(OCCOc2ccc(C#N)cc2F)c1 [Compound 92, 3-fluoro-4-(2-((5-(1-methyl-1H-pyrazol-5-yl)pyridin-3-yl)oxy)ethoxy)benzonitrile] | 300 to 1000 nM | –
20 | Cn1nccc1-c1cc(OCCOc2ccc(C#N)cc2)ccc1F [Compound 93, 4-(2-(4-fluoro-3-(1-methyl-1H-pyrazol-5-yl)phenoxy)ethoxy)benzonitrile] | 6.6 nM | –
21 | Cn1nccc1-c1cc(F)cc(OCCOc2ccc(C#N)cc2)c1 [Compound 94, 4-(2-(3-fluoro-5-(1-methyl-1H-pyrazol-5-yl)phenoxy)ethoxy)benzonitrile] | 1.6 nM | –
22 | Cc1nncn1-c1cc(OCCOc2ccc(C#N)cc2F)ccn1 [Compound 95, 3-fluoro-4-(2-((2-(3-methyl-4H-1,2,4-triazol-4-yl)pyridin-4-yl)oxy)ethoxy)benzonitrile] | 10 nM | –
23 | Cn1nccc1-c1ccc(F)c(OCCOc2ccc(C#N)cc2)c1 [Compound 96, 4-(2-(2-fluoro-5-(1-methyl-1H-pyrazol-5-yl)phenoxy)ethoxy)benzonitrile] | 400 to 3000 nM | –

Now from value to compound:

Row | IC50 [1] | IC50 (unit (nM)) | Structure (SMILES)
24 | 470 to 1000 nM | – | Cn1nccc1-c1cc(OCCOc2ncc(C#N)cc2F)ccn1 [Compound 97, 5-fluoro-6-(2-((2-(1-methyl-1H-pyrazol-5-yl)pyridin-4-yl)oxy)ethoxy)nicotinonitrile]
25 | 10 nM | – | Cn1nccc1-c1cc(OCCOc2ccc(Cl)cc2C#N)ccn1 [Compound 98, 5-chloro-2-(2-((2-(1-methyl-1H-pyrazol-5-yl)pyridin-4-yl)oxy)ethoxy)benzonitrile]
26 | 2.6 nM | – | Cc1nccn1-c1cc(OCCOc2ccc(Cl)cc2C#N)ccn1 [Compound 99, 5-chloro-2-(2-((2-(2-methyl-1H-imidazol-1-yl)pyridin-4-yl)oxy)ethoxy)benzonitrile]
27 | 1.8 nM | – | Cn1nccc1-c1cc(OCCOc2ccc(C#N)cc2Cl)ccn1 [Compound 100, 3-chloro-4-(2-((2-(1-methyl-1H-pyrazol-5-yl)pyridin-4-yl)oxy)ethoxy)benzonitrile]
28 | 29 nM | – | Cn1nccc1-c1cc(OCCOc2ccc(Cl)cc2F)ccn1 [Compound 101, 4-(2-(4-chloro-2-fluorophenoxy)ethoxy)-2-(1-methyl-1H-pyrazol-5-yl)pyridine]
29 | 68 nM | – | Cc1nccn1-c1cccc(OCCOc2ccc(Cl)cc2F)c1 [Compound 102, 1-(3-(2-(4-chloro-2-fluorophenoxy)ethoxy)phenyl)-2-methyl-1H-imidazole]
30 | 3.1 nM | – | Cc1nccn1-c1cc(OCCOc2ccc(Cl)cc2F)ccn1 [Compound 103, 4-(2-(4-chloro-2-fluorophenoxy)ethoxy)-2-(2-methyl-1H-imidazol-1-yl)pyridine]
31 | 1.7 nM | – | Cc1nccn1-c1cc(OCCOc2ccc(Br)cc2F)ccn1 [Compound 104, 4-(2-(4-bromo-2-fluorophenoxy)ethoxy)-2-(2-methyl-1H-imidazol-1-yl)pyridine]
32 | 6 nM | – | Cn1nccc1-c1cc(F)cc(OCCOc2ccc(C#N)cc2F)c1 [Compound 105, 3-fluoro-4-(2-(3-fluoro-5-(1-methyl-1H-pyrazol-5-yl)phenoxy)ethoxy)benzonitrile]
33 | 300 to 1000 nM | – | Cn1nccc1-c1cccc(OCCOc2ccc(C#N)cc2F)n1 [Compound 106, 3-fluoro-4-(2-((6-(1-methyl-1H-pyrazol-5-yl)pyridin-2-yl)oxy)ethoxy)benzonitrile]
34 | 150 nM | – | Cn1nccc1-c1cc(OCCOc2ncc(C#N)cc2F)ccc1F [Compound 107, 5-fluoro-6-(2-(4-fluoro-3-(1-methyl-1H-pyrazol-5-yl)phenoxy)ethoxy)nicotinonitrile]
35 | 51 nM | – | Cc1nccn1-c1cc(OCCOc2ccc(C#N)cc2)ccc1F [Compound 108, 4-(2-(4-fluoro-3-(2-methyl-1H-imidazol-1-yl)phenoxy)ethoxy)benzonitrile]
36 | 170 nM | – | Cc1nccn1-c1cc(OCCOc2ccc(C#N)cn2)ccc1F [Compound 109, 6-(2-(4-fluoro-3-(2-methyl-1H-imidazol-1-yl)phenoxy)ethoxy)nicotinonitrile]
37 | 270 nM | – | Cn1nccc1-c1cccc(OCCOc2ccc(Cl)cc2)c1 [Compound 110, 5-(3-(2-(4-chlorophenoxy)ethoxy)phenyl)-1-methyl-1H-pyrazole]
38 | 180 nM | – | Cc1nccn1-c1cccc(OCCOc2ccc(C#N)cc2C(F)(F)F)c1 [Compound 111, 4-(2-(3-(2-methyl-1H-imidazol-1-yl)phenoxy)ethoxy)-3-(trifluoromethyl)benzonitrile]
39 | 250 nM | – | Cc1nccn1-c1cccc(OCCOc2ccc(Cl)cc2)c1 [Compound 112, 1-(3-(2-(4-chlorophenoxy)ethoxy)phenyl)-2-methyl-1H-imidazole]
40 | 22 nM | – | Cn1nccc1-c1cc(OCCOc2ccc(C#N)cc2F)ccc1F [Compound 113, 3-fluoro-4-(2-(4-fluoro-3-(1-methyl-1H-pyrazol-5-yl)phenoxy)ethoxy)benzonitrile]
41 | 82 nM | – | Cc1nccn1-c1cccc(OCCOc2ccc(F)cc2C#N)c1 [Compound 114, 5-fluoro-2-(2-(3-(2-methyl-1H-imidazol-1-yl)phenoxy)ethoxy)benzonitrile]
42 | 160 nM | – | Cc1nccn1-c1cc(OCCOc2ccc(Cl)cc2)ccn1 [Compound 115, 4-(2-(4-chlorophenoxy)ethoxy)-2-(2-methyl-1H-imidazol-1-yl)pyridine]
43 | 9.5 nM | – | N#Cc1ccc(OCCOc2cccc(-c3ccnn3C3CC3)c2)c(F)c1 [Compound 116, 4-(2-(3-(1-cyclopropyl-1H-pyrazol-5-yl)phenoxy)ethoxy)-3-fluorobenzonitrile]
44 | 55 nM | – | N#Cc1ccc(OCCOc2cccc(-c3ccnn3C3CC3)c2)cc1 [Compound 117, 4-(2-(3-(1-cyclopropyl-1H-pyrazol-5-yl)phenoxy)ethoxy)benzonitrile]
45 | 2.2 nM | – | N#Cc1ccc(OCCOc2cccc(-c3ccnn3C3CC3)c2)c(Cl)c1 [Compound 118, 3-chloro-4-(2-(3-(1-cyclopropyl-1H-pyrazol-5-yl)phenoxy)ethoxy)benzonitrile]
46 | 80 nM | – | Cc1nccn1-c1cc(OCCOc2ccc(F)cc2C#N)ccn1 [Compound 119, 5-fluoro-2-(2-((2-(2-methyl-1H-imidazol-1-yl)pyridin-4-yl)oxy)ethoxy)benzonitrile]
